In US20090155209A1, “NOVEL MACROCYCLIC INHIBITORS OF HEPATITIS C VIRUS REPLICATION” (priority 2007, published 2009):

Key:
NS3-NS4 [1] = target: T1, NS3-NS4 (Hepatitis C virus genotype 1a, UniProt P27958); experiment: NS3-NS4 activity, IC50 (Example 37, Table 8); format: biochemical
NS3-NS4 [2] = target: T1, NS3-NS4; experiment: cell-based; details: EC50, NS3-NS4 activity

T1 sequence (P27958 1027-1657): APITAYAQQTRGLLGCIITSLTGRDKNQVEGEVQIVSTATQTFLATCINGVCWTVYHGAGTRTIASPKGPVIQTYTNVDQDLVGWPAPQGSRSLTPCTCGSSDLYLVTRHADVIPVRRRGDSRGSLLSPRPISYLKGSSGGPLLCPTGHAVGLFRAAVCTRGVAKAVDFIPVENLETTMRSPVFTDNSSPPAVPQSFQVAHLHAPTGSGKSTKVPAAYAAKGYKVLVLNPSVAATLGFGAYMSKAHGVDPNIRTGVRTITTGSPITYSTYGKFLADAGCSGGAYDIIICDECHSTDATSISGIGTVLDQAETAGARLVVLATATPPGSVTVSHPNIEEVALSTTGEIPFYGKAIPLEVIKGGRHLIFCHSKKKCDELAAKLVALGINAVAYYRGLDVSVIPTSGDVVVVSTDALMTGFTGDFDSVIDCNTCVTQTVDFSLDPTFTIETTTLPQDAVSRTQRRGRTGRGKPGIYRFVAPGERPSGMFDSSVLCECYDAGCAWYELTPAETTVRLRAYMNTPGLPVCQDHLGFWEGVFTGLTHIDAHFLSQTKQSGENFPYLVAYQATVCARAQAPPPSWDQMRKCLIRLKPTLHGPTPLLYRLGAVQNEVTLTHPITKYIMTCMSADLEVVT
T1 sequence (P27958 1658-1711): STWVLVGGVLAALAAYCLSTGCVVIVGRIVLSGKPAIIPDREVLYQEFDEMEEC

Row | Compound | IC50 (NS3-NS4 [1]) [nM] | EC50 (NS3-NS4 [2]) [nM]
1 | Cc1ccc(CS(=O)(=O)NC(=O)[C@@]23C[C@H]2/C=C\CCCCC[C@H](NC(=O)OC(C)(C)C)C(=O)N2C[C@H](OC(=O)N4Cc5cccc(F)c5C4)C[C@H]2C(=O)N3)cc1 [Compound 515] | < 100 | < 100
2 | CC(C)(C)OC(=O)N[C@H]1CCCCC/C=C\[C@@H]2C[C@@]2(C(=O)NS(=O)(=O)Cc2cccc(C(F)(F)F)c2)NC(=O)[C@@H]2C[C@@H](OC(=O)N3Cc4cccc(F)c4C3)CN2C1=O [Compound 518] | < 100 | 100 to 1000
3 | CC(C)(C)OC(=O)N[C@H]1CCCCC/C=C\[C@@H]2C[C@@]2(C(=O)NS(=O)(=O)Cc2ccc(C(F)(F)F)cc2)NC(=O)[C@@H]2C[C@@H](OC(=O)N3Cc4cccc(F)c4C3)CN2C1=O [Compound 519] | < 100 | 100 to 1000
4 | CC(C)(C)OC(=O)N[C@H]1CCCCC/C=C\[C@@H]2C[C@@]2(C(=O)NS(=O)(=O)Cc2cc(F)ccc2F)NC(=O)[C@@H]2C[C@@H](OC(=O)N3Cc4cccc(F)c4C3)CN2C1=O [Compound 520] | < 100 | < 100
5 | CC(C)(C)OC(=O)N[C@H]1CCCCC/C=C\[C@@H]2C[C@@]2(C(=O)NS(=O)(=O)Cc2c(F)cccc2F)NC(=O)[C@@H]2C[C@@H](OC(=O)N3Cc4cccc(F)c4C3)CN2C1=O [Compound 521] | < 100 | < 100
6 | CC(C)(C)OC(=O)N[C@H]1CCCCC/C=C\[C@@H]2C[C@@]2(C(=O)NS(=O)(=O)Cc2ccc(F)c(F)c2)NC(=O)[C@@H]2C[C@@H](OC(=O)N3Cc4cccc(F)c4C3)CN2C1=O [Compound 522] | < 100 | 100 to 1000
7 | CC(C)(C)OC(=O)N[C@H]1CCCCC/C=C\[C@@H]2C[C@@]2(C(=O)NS(=O)(=O)Cc2cc(F)cc(F)c2)NC(=O)[C@@H]2C[C@@H](OC(=O)N3Cc4cccc(F)c4C3)CN2C1=O [Compound 523] | < 100 | 100 to 1000
8 | CC(C)(C)OC(=O)N[C@H]1CCCCC/C=C\[C@@H]2C[C@@]2(C(=O)NS(=O)(=O)Cc2ccc(Cl)cc2Cl)NC(=O)[C@@H]2C[C@@H](OC(=O)N3Cc4cccc(F)c4C3)CN2C1=O [Compound 524] | < 100 | 100 to 1000
9 | CC(C)(C)OC(=O)N[C@H]1CCCCC/C=C\[C@@H]2C[C@@]2(C(=O)NS(=O)(=O)Cc2cc(Cl)ccc2Cl)NC(=O)[C@@H]2C[C@@H](OC(=O)N3Cc4cccc(F)c4C3)CN2C1=O [Compound 525] | < 100 | 100 to 1000
10 | CC(C)(C)OC(=O)N[C@H]1CCCCC/C=C\[C@@H]2C[C@@]2(C(=O)NS(=O)(=O)Cc2ccc(Cl)c(Cl)c2)NC(=O)[C@@H]2C[C@@H](OC(=O)N3Cc4cccc(F)c4C3)CN2C1=O [Compound 526] | < 100 | 100 to 1000
11 | CC(C)(C)OC(=O)N[C@H]1CCCCC/C=C\[C@@H]2C[C@@]2(C(=O)NS(=O)(=O)Cc2c(Cl)cccc2Cl)NC(=O)[C@@H]2C[C@@H](OC(=O)N3Cc4cccc(F)c4C3)CN2C1=O [Compound 527] | < 100 | < 100
12 | CC(C)(C)OC(=O)N[C@H]1CCCCC/C=C\[C@@H]2C[C@@]2(C(=O)NS(=O)(=O)Cc2cc(C(F)(F)F)cc(C(F)(F)F)c2)NC(=O)[C@@H]2C[C@@H](OC(=O)N3Cc4cccc(F)c4C3)CN2C1=O [Compound 528] | < 100 | 10000 to 50000
13 | CC(C)(C)OC(=O)N[C@H]1CCCCC/C=C\[C@@H]2C[C@@]2(C(=O)NS(=O)(=O)c2cccnc2Cl)NC(=O)[C@@H]2C[C@@H](OC(=O)N3Cc4cccc(F)c4C3)CN2C1=O [Compound 529] | < 100 | < 100
14 | Cc1ccc(S(=O)(=O)NC(=O)[C@@]23C[C@H]2/C=C\CCCCC[C@H](NC(=O)OC(C)(C)C)C(=O)N2C[C@H](OC(=O)N4Cc5cccc(F)c5C4)C[C@H]2C(=O)N3)o1 [Compound 533] | < 100 | < 100
15 | Cc1cc(S(=O)(=O)NC(=O)[C@@]23C[C@H]2/C=C\CCCCC[C@H](NC(=O)OC(C)(C)C)C(=O)N2C[C@H](OC(=O)N4Cc5cccc(F)c5C4)C[C@H]2C(=O)N3)oc1C [Compound 534] | < 100 | 100 to 1000
16 | CC(C)(C)OC(=O)N[C@H]1CCCCC/C=C\[C@@H]2C[C@@]2(C(=O)NS(=O)(=O)c2cc(Cl)cs2)NC(=O)[C@@H]2C[C@@H](OC(=O)N3Cc4cccc(F)c4C3)CN2C1=O [Compound 536] | < 100 | < 100
17 | Cc1ccc(S(=O)(=O)NC(=O)[C@@]23C[C@H]2/C=C\CCCCC[C@H](NC(=O)OC(C)(C)C)C(=O)N2C[C@H](OC(=O)N4Cc5cccc(F)c5C4)C[C@H]2C(=O)N3)s1 [Compound 538] | < 100 | < 100
18 | Cc1csc(S(=O)(=O)NC(=O)[C@@]23C[C@H]2/C=C\CCCCC[C@H](NC(=O)OC(C)(C)C)C(=O)N2C[C@H](OC(=O)N4Cc5cccc(F)c5C4)C[C@H]2C(=O)N3)c1 [Compound 539] | < 100 | < 100
19 | COc1csc(S(=O)(=O)NC(=O)[C@@]23C[C@H]2/C=C\CCCCC[C@H](NC(=O)OC(C)(C)C)C(=O)N2C[C@H](OC(=O)N4Cc5cccc(F)c5C4)C[C@H]2C(=O)N3)c1 [Compound 541] | < 100 | < 100
20 | CC(C)(C)OC(=O)N[C@H]1CCCCC/C=C\[C@@H]2C[C@@]2(C(=O)NS(=O)(=O)c2cc3ccccc3o2)NC(=O)[C@@H]2C[C@@H](OC(=O)N3Cc4cccc(F)c4C3)CN2C1=O [Compound 542] | < 100 | 100 to 1000

Row | Compound | IC50 (NS3-NS4 [1]) [nM] | EC50 (NS3-NS4 [2]) [nM]
21 | C=CCC1(S(=O)(=O)NC(=O)[C@@]23C[C@H]2/C=C\CCCCC[C@H](NC(=O)OC(C)(C)C)C(=O)N2C[C@H](OC(=O)N4Cc5cccc(F)c5C4)C[C@H]2C(=O)N3)CC1 [Compound 543] | < 100 | < 100
22 | CCCS(=O)(=O)NC(=O)[C@@]12C[C@H]1/C=C\CCCCC[C@H](NC(=O)OC(C)(C)C)C(=O)N1C[C@H](OC(=O)N3Cc4cccc(F)c4C3)C[C@H]1C(=O)N2 [Compound 550] | < 100 | < 100
23 | CC(C)CS(=O)(=O)NC(=O)[C@@]12C[C@H]1/C=C\CCCCC[C@H](NC(=O)OC(C)(C)C)C(=O)N1C[C@H](OC(=O)N3Cc4cccc(F)c4C3)C[C@H]1C(=O)N2 [Compound 551] | < 100 | < 100
24 | CC(C)(C)OC(=O)N[C@H]1CCCCCCC[C@@H]2C[C@@]2(C(=O)NS(=O)(=O)c2ccccc2)NC(=O)[C@@H]2C[C@@H](OC(=O)N3Cc4cccc(F)c4C3)CN2C1=O [Compound 601] | < 100 | < 100
25 | Cc1ccccc1S(=O)(=O)NC(=O)[C@@]12C[C@H]1CCCCCCC[C@H](NC(=O)OC(C)(C)C)C(=O)N1C[C@H](OC(=O)N3Cc4cccc(F)c4C3)C[C@H]1C(=O)N2 [Compound 602] | < 100 | < 100
26 | CC(C)(C)OC(=O)N[C@H]1CCCCCCC[C@@H]2C[C@@]2(C(=O)NS(=O)(=O)c2ccccc2Cl)NC(=O)[C@@H]2C[C@@H](OC(=O)N3Cc4cccc(F)c4C3)CN2C1=O [Compound 603] | < 100 | < 100
27 | CC(C)(C)OC(=O)N[C@H]1CCCCCCC[C@@H]2C[C@@]2(C(=O)NS(=O)(=O)c2ccc(Cl)cc2)NC(=O)[C@@H]2C[C@@H](OC(=O)N3Cc4cccc(F)c4C3)CN2C1=O [Compound 604] | < 100 | < 100
28 | CC(C)(C)OC(=O)N[C@H]1CCCCCCC[C@@H]2C[C@@]2(C(=O)NS(=O)(=O)c2ccccc2C(F)(F)F)NC(=O)[C@@H]2C[C@@H](OC(=O)N3Cc4cccc(F)c4C3)CN2C1=O [Compound 605] | < 100 | < 100
29 | CC(C)(C)OC(=O)N[C@H]1CCCCCCC[C@@H]2C[C@@]2(C(=O)NS(=O)(=O)c2cc(Cl)sc2Cl)NC(=O)[C@@H]2C[C@@H](OC(=O)N3Cc4cccc(F)c4C3)CN2C1=O [Compound 606] | < 100 | < 100
30 | Cc1ccccc1CS(=O)(=O)NC(=O)[C@@]12C[C@H]1CCCCCCC[C@H](NC(=O)OC(C)(C)C)C(=O)N1C[C@H](OC(=O)N3Cc4cccc(F)c4C3)C[C@H]1C(=O)N2 [Compound 613] | < 100 | < 100
31 | Cc1ccc(C)c(CS(=O)(=O)NC(=O)[C@@]23C[C@H]2CCCCCCC[C@H](NC(=O)OC(C)(C)C)C(=O)N2C[C@H](OC(=O)N4Cc5cccc(F)c5C4)C[C@H]2C(=O)N3)c1 [Compound 629] | < 100 | < 100
32 | COc1cc(CS(=O)(=O)NC(=O)[C@@]23C[C@H]2CCCCCCC[C@H](NC(=O)OC(C)(C)C)C(=O)N2C[C@H](OC(=O)N4Cc5cccc(F)c5C4)C[C@H]2C(=O)N3)cc(OC)c1 [Compound 632] | < 100 | 100 to 1000
33 | CC(C)(C)OC(=O)N[C@H]1CCCCCCC[C@@H]2C[C@@]2(C(=O)NS(=O)(=O)c2ccc(Cl)nc2Cl)NC(=O)[C@@H]2C[C@@H](OC(=O)N3Cc4cccc(F)c4C3)CN2C1=O [Compound 637] | < 100 | 100 to 1000
34 | COc1ccc(S(=O)(=O)NC(=O)[C@@]23C[C@H]2CCCCCCC[C@H](NC(=O)OC(C)(C)C)C(=O)N2C[C@H](OC(=O)N4Cc5cccc(F)c5C4)C[C@H]2C(=O)N3)cn1 [Compound 638] | < 100 | < 100
35 | Cc1csc(S(=O)(=O)NC(=O)[C@@]23C[C@H]2CCCCCCC[C@H](NC(=O)OC(C)(C)C)C(=O)N2C[C@H](OC(=O)N4Cc5cccc(F)c5C4)C[C@H]2C(=O)N3)c1 [Compound 645] | < 100 | < 100
36 | CC(C)(C)OC(=O)N[C@H]1CCCCCCC[C@@H]2C[C@@]2(C(=O)NS(=O)(=O)c2cc3ccccc3o2)NC(=O)[C@@H]2C[C@@H](OC(=O)N3Cc4cccc(F)c4C3)CN2C1=O [Compound 648] | < 100 | 100 to 1000
37 | C=CCC1(S(=O)(=O)NC(=O)[C@@]23C[C@H]2CCCCCCC[C@H](NC(=O)OC(C)(C)C)C(=O)N2C[C@H](OC(=O)N4Cc5cccc(F)c5C4)C[C@H]2C(=O)N3)CC1 [Compound 649] | < 100 | < 100
38 | CCC1(S(=O)(=O)NC(=O)[C@@]23C[C@H]2CCCCCCC[C@H](NC(=O)OC(C)(C)C)C(=O)N2C[C@H](OC(=O)N4Cc5cccc(F)c5C4)C[C@H]2C(=O)N3)CC1 [Compound 650] | < 100 | < 100
39 | CCCC1(S(=O)(=O)NC(=O)[C@@]23C[C@H]2CCCCCCC[C@H](NC(=O)OC(C)(C)C)C(=O)N2C[C@H](OC(=O)N4Cc5cccc(F)c5C4)C[C@H]2C(=O)N3)CC1 [Compound 651] | < 100 | < 100
